Laboratory results from the supplement of paper PMC10307832.

What was measured:
Assay in all cases: relative viability (nuclei count vs DMSO), 5 days (fraction); higher = more cells survive
[1] = compound: COc1cc2/c(=N/c3ccc(Br)cc3F)nc[nH]c2cc1OCC1CCN(C)CC1 [Vandetanib] + C[C@@H](Oc1cc(-c2cnn(C3CCNCC3)c2)cnc1N)c1c(Cl)ccc(F)c1Cl [Crizotinib] (partner 1 µM)
Summary of the method: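 Nuclei were stained with Hoechst during a one-step fixation (final 0.05% Triton X-100, 1% formaldehyde, 1 ug/ml Hoechst) carried out 5 days after dosing, then counted on 4× images. The cells, lung cancer lines in 1536-well plates, had been dosed by pin tool the day after seeding with one drug alone or a fixed anchor-drug dose plus five library-drug doses (not always all listed) in √10 steps. Relative viability is the nuclei count in treated wells divided by that in vehicle wells, and each value is the median of duplicate plates.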

[2] = compound: C#Cc1cccc(Nc2ncnc3cc(OC)c(OCCCCCCC(=O)NO)cc23)c1 [CUDC-101]
Summary of the method: (§1)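 MetaXpress counted nuclei in 4× images of lung cancer cell lines that had been fixed, permeabilised and Hoechst-stained in one step. Before that, cells in 1536-well plates were kept overnight at 37 °C, pinned with five √10-spaced library-drug doses on vehicle-anchored plates, and cultured 5 days without medium change. Viability takes treated-well nuclei over vehicle-well nuclei and uses the median across plates. Plates were accepted only at control CV below 25% and at least one doubling.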

[3] = compound: COc1cc(N2CCC(N3CCN(C)CC3)CC2)ccc1Nc1ncc(Cl)c(Nc2ccccc2S(=O)(=O)C(C)C)n1 [NVP-TAE684]
Summary of the method: as §1

[4] = compound: COc1cc2/c(=N/c3ccc(Br)cc3F)nc[nH]c2cc1OCC1CCN(C)CC1 [Vandetanib]
Summary of the method: as §1

| Cell Line | relative viability ([1]; first compound 0.02 µM) | relative viability ([1]; first compound 0.06325 µM) | relative viability ([1]; first compound 0.2 µM) | relative viability ([1]; first compound 0.6325 µM) | relative viability ([1]; first compound 2 µM) | relative viability ([2]; 0.01 µM) | relative viability ([2]; 0.03162 µM) | relative viability ([2]; 0.1 µM) | relative viability ([2]; 0.3162 µM) | relative viability ([2]; 1 µM) | relative viability ([3]; 0.2 µM) | relative viability ([3]; 0.6325 µM) | relative viability ([3]; 2 µM) | relative viability ([4]; 0.02 µM) | relative viability ([4]; 0.06325 µM) | relative viability ([4]; 0.2 µM) | relative viability ([4]; 0.6325 µM) | relative viability ([4]; 2 µM) |
| --- | --- | --- | --- | --- | --- | --- | --- | --- | --- | --- | --- | --- | --- | --- | --- | --- | --- | --- |
| 201T | 1 | 1.03 | 0.978 | 0.95 | 0.969 | 0.984 | 0.97 | 0.964 | 1.03 | 0.829 | 1.05 | 0.958 | 0.875 | 0.951 | 0.951 | 1.01 | 0.934 | 0.941 |
| A549 | 0.777 | 0.69 | 0.862 | 0.686 | 0.683 | 1.04 | 0.967 | 1 | 1.04 | 0.799 | 1.1 | 0.951 | 0.585 | 1 | 0.894 | 0.913 | 0.907 | 0.922 |
| A-427 | 0.895 | 0.88 | 0.966 | 0.874 | 0.879 | 1.02 | 0.978 | 0.949 | 0.932 | 0.738 | 1.11 | 0.847 | 0.863 | 0.955 | 0.963 | 0.953 | 0.98 | 0.96 |
| ABC-1 | 1.13 | 1.05 | 1 | 1.34 | 0.728 | 0.95 | 0.978 | 0.938 | 0.812 | 0.453 | 0.969 | 0.624 | 0.537 | 0.827 | 0.917 | 0.844 | 0.908 | 0.628 |
| BEN | 0.809 | 0.807 | 0.89 | 0.862 | 0.785 | 1.11 | 0.833 | 1.06 | 0.856 | 0.708 | 0.933 | 0.73 | 0.876 | 0.941 | 0.916 | 0.886 | 0.933 | 0.988 |
| CAL-12T | 0.778 | 0.846 | 0.799 | 0.707 | 0.364 | 1.16 | 1.03 | 0.993 | 1.05 | 0.951 | 0.904 | 0.956 | 0.466 | 1.07 | 0.909 | 0.954 | 0.885 | 0.729 |
| COR-L23 | 0.698 | 0.623 | 0.114 | 0.671 | 0.729 | 1.11 | 0.99 | 1.05 | 0.974 | 0.641 | 0.972 | 1 | 0.481 | 0.974 | 0.93 | 1.02 | 1.08 | 1.06 |
| COR-L 105 | 0.851 | 0.839 | 0.729 | 0.731 | 0.248 | 0.951 | 1.01 | 0.815 | 0.906 | 0.482 | 1.03 | 0.68 | 0.452 | 0.936 | 0.875 | 0.911 | 0.641 | 0.457 |
| Calu-6 | 0.816 | 0.723 | 0.897 | 0.833 | 0.791 | 1.03 | 0.998 | 0.979 | 0.993 | 0.857 | 0.937 | 0.992 | 0.758 | 0.958 | 0.946 | 1.02 | 0.988 | 0.95 |
| ChaGo-K-1 | 1.1 | 1.19 | 1.14 | 1.13 | 1.16 | 0.923 | 0.965 | 1.02 | 1.06 | 0.787 | 0.98 | 0.878 | 0.843 | 1.01 | 1.01 | 1.01 | 0.998 | 0.984 |
| EBC-1 | 0.19 | 0.177 | 0.195 | 0.194 | 0.152 | 1 | 0.89 | 0.975 | 0.785 | 0.582 | 0.836 | 1.03 | 0.744 | 0.93 | 0.959 | 1.07 | 1.09 | 1.03 |
| EKVX | 1.01 | 0.882 | 1.13 | 1.02 | 0.531 | 1.02 | 1.04 | 0.883 | 1.1 | 0.772 | 0.862 | 0.873 | 0.719 | 1 | 0.928 | 0.925 | 0.773 | 0.608 |
| EMC-BAC-2 | 0.764 | 0.778 | 0.432 | 0.765 | 0.708 | 1.05 | 0.966 | 1.13 | 0.9 | 0.616 | 0.966 | 0.894 | 0.679 | 1.03 | 0.981 | 0.929 | 1.02 | 0.918 |
| EPLC-272H | 1.01 | 0.732 | 0.961 | 0.845 | 0.917 | 1.04 | 0.9 | 0.838 | 0.79 | 0.418 | 0.9 | 0.667 | 0.688 | 0.941 | 0.834 | 0.975 | 0.941 | 0.923 |
